The values below are quoted from earlier work in US20200057081A1, “System and Method for Managing Animal Cancers by Disabling the Cancer Cells Ability to Reproduce” (priority 2018, published 2020).

pIC50: −log10 of the molar value.

In data set [1] the test system is tumors transplanted to mice.
Data set [2] deals with cultured cancer cell lines. The note with it: multiple cell lines.
In another data set the test system is mitochondria. Conditions: Bid-activated, Bax/Bak-dependent, in vitro.
In the next data set the target is T1, dynamin GTPase (Homo sapiens, UniProt O00429).
T1 construct: host or cells: mammalian cells (not specified)
T1 sequence (O00429 whole entry): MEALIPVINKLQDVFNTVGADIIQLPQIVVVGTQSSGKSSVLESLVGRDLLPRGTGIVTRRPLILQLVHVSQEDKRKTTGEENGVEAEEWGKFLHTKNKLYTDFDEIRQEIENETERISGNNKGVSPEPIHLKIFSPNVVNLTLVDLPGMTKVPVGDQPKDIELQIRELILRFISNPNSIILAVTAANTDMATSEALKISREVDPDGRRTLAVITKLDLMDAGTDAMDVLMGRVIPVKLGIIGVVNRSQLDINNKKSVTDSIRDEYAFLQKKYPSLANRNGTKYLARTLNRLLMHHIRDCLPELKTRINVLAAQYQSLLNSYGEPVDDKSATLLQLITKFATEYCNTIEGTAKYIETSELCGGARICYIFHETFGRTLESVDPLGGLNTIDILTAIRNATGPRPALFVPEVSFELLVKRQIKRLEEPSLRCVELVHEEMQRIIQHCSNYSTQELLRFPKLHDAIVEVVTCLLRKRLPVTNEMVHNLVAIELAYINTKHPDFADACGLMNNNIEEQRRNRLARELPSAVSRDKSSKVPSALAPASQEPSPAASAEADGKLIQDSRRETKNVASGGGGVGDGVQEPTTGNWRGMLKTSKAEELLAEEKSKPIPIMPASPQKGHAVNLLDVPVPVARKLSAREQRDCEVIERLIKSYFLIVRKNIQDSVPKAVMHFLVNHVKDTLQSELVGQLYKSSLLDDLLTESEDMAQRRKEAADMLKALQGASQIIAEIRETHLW
Conditions: in mammalian cells; read-out: IC50, inhibition of mitochondrial division / dynamin GTPase activity.

The next data set has as its target Drp1/Fis1 interaction (Homo sapiens, UniProt O00429).

Chain of Drp1/Fis1 interaction (O00429 whole entry): as above

`O=C(O)C(=O)CBr` [3-bromopyruvate]: the tumor growth result in data set [1] is “slow down the growth”.

Regarding `CC1=C2C[C@H]3[C@@H](CC=C4C[C@@H](O)CC[C@@]43C)[C@@H]2CC[C@]12O[C@@H]1C[C@H](C)CN[C@H]1[C@H]2C` [Cyc], the anti-proliferative effect result in data set [2] is on record as “modest anti-proliferative effect”.

For `CS(=O)(=O)c1ccc(C(=O)Nc2ccc(Cl)c(-c3ccccn3)c2)c(Cl)c1` [GDC-0449], the anti-proliferative effect result in data set [2] is recorded as “modest anti-proliferative effect”.

As to `COc1cc(-n2c(=S)[nH]c3ccccc3c2=O)c(Cl)cc1Cl` [Mdivi 1], the “cytochrome c release from mitochondria” value in the data set with mitochondria is on record as “block Bid-activated Bax/Bak-dependent cytochrome c release”. For the same compound, the pIC50 at dynamin GTPase is approximately 4.30.

For the compound `C=C1CC[C@H](O)C/C1=C/C=C1\CCC[C@]2(C)[C@@H]([C@H](C)CCCC(C)C)CC[C@@H]12` [VD3], in data set [2], the anti-proliferative effect entry is “modest anti-proliferative effect”.

For `CN(C)c1ccc(C2Nc3ccc4ccccc4c3C3=C2C(=O)CC(C)(C)C3)cc1Br` (stereo not shown) [compound 968], the “inhibition of cancer cell growth” value in the data set with cancer cells (cancer cells) is given as “highly specific for inhibiting cancer cell growth”. In addition, the “effect on normal cells” value in the data set with cancer cells (normal (nontransformed) cells) is listed as “little effect”.

Turning to `Cc1ncc(C[n+]2csc(CCO)c2C)c(=O)[nH]1` [oxythiamine], the tumor growth result in data set [1] is recorded as “slow down the growth”.

For the compound “P110: polypeptide P110, DLLPRGT, inhibitor of Drp1”, the “selectivity for Drp1/Fis1 interaction over Drp1 interaction with other ligands” value in the data set with Drp1/Fis1 interaction is given as “more selective for blocking Drp1/Fis1 interaction”.
